The text below walks through data of ChEMBL document CHEMBL1201862, “PubChem BioAssay data set” (2004).

Activity calls are given as the source filed them. Where only a bound is given, the exact number is not on record here.

For assay [1], the target named is Voltage-gated inwardly rectifying potassium channel KCNH2 (Homo sapiens, UniProt Q12809). As to the kind of experiment: hERG protection from proarrhythmic block, potency, dose response, cell-based, thallium flux (AID 2121). In kind it is ADME. In general terms: The hERG channel carries a current that helps repolarise heart muscle cells.
For assay [2], the target named is Luciferin 4-monooxygenase (Photinus pyralis, UniProt P08659). As to the kind of experiment: firefly luciferase enzyme inhibitors, dose response, biochemical, luminescence (AID 1891).
The nature of assay [3]: Fluorescence Cell-Based Dose Response to Identify Inhibitors of Thrombin Receptor-Activating Peptide SFLLRN-Mediated P-Selectin Induction on Platelets. [Related pubchem assays: 1663 (Primary HTS), 1889 (retest at dose ), 1891 (counterscreen), 1678 (Project Summary)]. The class given is functional. On the technique in general: A counterscreen serves to expose hits that act by an unwanted route or on another target.

A short description of assay [4]: Luminescence Cell-Based Dose Confirmation HTS to Identify Inhibitors of Platelet Dense Granule Release. [Related pubchem assays: 1663 (Primary HTS), 1678 (Summary of Project)]. The class given is functional.
In assay [5] the target is NADPH oxidase 1 (Homo sapiens, UniProt Q9Y5S8). In kind it is functional, cell-based.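 Also: Cell-based assay with luminescence read-out, IC50 derived from inhibitor dose-response curves; intracellular ROS from endogenous NOX1 in intact HT29 colon cancer cells; potency of inhibitors that lower the ROS luminescence signal.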
Assay [6] addresses Cytochrome P450 2D6 (Homo sapiens, UniProt P10635).
Assay [7] deals with Ephrin type-A receptor 4 (Mus musculus, UniProt Q03137). As to the kind of experiment: inhibitors of EphA4 binding to KYL peptide, primary screen, biochemical, colorimetric, mouse EphA4 (AID 689). The class given is functional.
A short description of assay [8]: growth suppression of PTEN-null colon cells, dose response, cell-based, HCT116 PTEN knockout (AID 1047).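 Also: HCT116 colon tumor cells with PTEN knocked out; cells exposed to compound for 60 hours before readout; potency for loss of cell viability measured by luminescence.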 In kind it is functional.
Assay [9] deals with Heat shock protein HSP 90-alpha (Homo sapiens, UniProt P07900). In kind it is functional, organism-based.
Assay [10] can be described thus: microbe, parasite or virus in culture. In kind it is functional. The settings on record: Mycobacterium tuberculosis.
Assay [11] is described as follows: growth suppression of beta-catenin-knockout colon cells, dose response, cell-based, HCT116, human colon tumor (AID 1045).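 Also: HCT116 colon tumor cells with beta catenin knocked out; cells exposed to compound for 60 hours.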 In kind it is functional.
In assay [12] the target is DNA dC->dU-editing enzyme APOBEC-3G (Homo sapiens, UniProt Q9HC16). The class given is functional.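 Also: Dose-response counterscreen measuring inhibition of APOBEC3G DNA deaminase activity, run while confirming APOBEC3A inhibitors.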
The target of assay [13] is Estrogen receptor beta (Homo sapiens, UniProt Q92731).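 Also: recombinant ER-beta bound to coactivator SRC1 peptide in presence of estradiol agonist; inhibitors block coactivator peptide binding and lower the FRET signal.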
Assay [14] has as its target T1, Carboxy-terminal domain RNA polymerase II polypeptide A small phosphatase 1 (Homo sapiens, UniProt Q9GZU7).
T1 sequence (Q9GZU7 whole entry): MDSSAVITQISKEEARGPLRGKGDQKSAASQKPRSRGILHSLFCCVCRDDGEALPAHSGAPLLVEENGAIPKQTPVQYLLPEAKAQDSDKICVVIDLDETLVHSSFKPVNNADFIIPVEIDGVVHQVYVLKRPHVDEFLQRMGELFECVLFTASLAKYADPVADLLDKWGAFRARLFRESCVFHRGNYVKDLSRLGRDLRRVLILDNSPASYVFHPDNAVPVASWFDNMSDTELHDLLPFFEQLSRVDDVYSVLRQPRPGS
As to the kind of experiment: inhibitors of CTDSP1, concentration-response testing, biochemical assay, absorbance-based, actives from ultra-high-throughput screening (AID 540297). The class given is functional.

Assay [15] addresses DNA dC->dU-editing enzyme APOBEC-3A (Homo sapiens, UniProt P31941). As to the kind of experiment: Dose Response confirmation of small molecule APOBEC3A DNA Deaminase Inhibitors via a fluorescence-based single-stranded DNA deaminase assay. [Related pubchem assays (depositor defined):AID493011, AID493024]. In kind it is functional.
A short description of assay [16]: cytotoxicity in HPDE-C7 cells, cell-based, fluorescence, HTS (AID 430). The settings on record: Homo sapiens. The class given is functional.
The nature of assay [17]: cytotoxicity in KRAS-transformed pancreatic duct cells, primary screen, cell-based, fluorescence, HTS (AID 431).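 Also: cell line used: HPDE-C7K.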 The settings on record: Homo sapiens. The class given is functional.
Assay [18] addresses Sphingosine 1-phosphate receptor 2 (Homo sapiens, UniProt O95136). As to the kind of experiment: Dose Response Cell Based Assay for Agonists of the S1P2 Receptor of Purchased Analogues. [Related pubchem assays: 729, 843, 854, 736 ]. In kind it is functional.
Assay [19] deals with T2, Estrogen receptor (Homo sapiens, UniProt P03372).
T2 sequence (P03372 whole entry): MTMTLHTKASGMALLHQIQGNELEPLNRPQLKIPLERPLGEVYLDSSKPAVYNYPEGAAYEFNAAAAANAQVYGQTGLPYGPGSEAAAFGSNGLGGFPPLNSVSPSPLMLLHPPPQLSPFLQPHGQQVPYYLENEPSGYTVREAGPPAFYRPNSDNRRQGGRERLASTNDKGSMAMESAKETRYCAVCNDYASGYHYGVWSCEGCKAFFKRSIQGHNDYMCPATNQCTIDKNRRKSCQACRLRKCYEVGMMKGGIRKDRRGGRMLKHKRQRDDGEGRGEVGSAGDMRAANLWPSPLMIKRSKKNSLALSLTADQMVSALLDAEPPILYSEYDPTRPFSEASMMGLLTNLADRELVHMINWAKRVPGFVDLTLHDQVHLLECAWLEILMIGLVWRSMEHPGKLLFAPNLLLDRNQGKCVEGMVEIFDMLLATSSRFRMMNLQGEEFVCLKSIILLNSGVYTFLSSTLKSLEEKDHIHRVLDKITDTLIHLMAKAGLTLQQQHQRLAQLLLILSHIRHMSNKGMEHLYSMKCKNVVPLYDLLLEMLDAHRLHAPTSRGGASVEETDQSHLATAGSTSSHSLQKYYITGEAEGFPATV

For assay [20], the target named is Protein-tyrosine kinase 2-beta (Homo sapiens, UniProt Q14289).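 Also: potency of inhibitors of PYK2 kinase phosphorylation of poly-GT substrate.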

Estrogen receptor beta, sequence (Q92731 whole entry, the tested form may be a part): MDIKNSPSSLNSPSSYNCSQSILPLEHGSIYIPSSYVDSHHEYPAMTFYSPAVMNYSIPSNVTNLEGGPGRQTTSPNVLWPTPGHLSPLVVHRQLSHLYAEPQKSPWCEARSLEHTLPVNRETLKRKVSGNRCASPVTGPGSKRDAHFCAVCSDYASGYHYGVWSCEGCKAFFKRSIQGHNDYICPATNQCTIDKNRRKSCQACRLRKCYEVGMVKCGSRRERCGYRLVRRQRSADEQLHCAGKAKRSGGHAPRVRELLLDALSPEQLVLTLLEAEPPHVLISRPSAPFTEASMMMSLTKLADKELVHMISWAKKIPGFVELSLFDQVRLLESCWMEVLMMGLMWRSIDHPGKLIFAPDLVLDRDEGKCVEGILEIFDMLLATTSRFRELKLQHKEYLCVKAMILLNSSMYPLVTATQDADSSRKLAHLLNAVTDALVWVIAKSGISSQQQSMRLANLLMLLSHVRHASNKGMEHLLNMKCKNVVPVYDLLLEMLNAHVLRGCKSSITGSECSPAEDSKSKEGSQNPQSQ
DNA dC->dU-editing enzyme APOBEC-3G, sequence (Q9HC16 whole entry): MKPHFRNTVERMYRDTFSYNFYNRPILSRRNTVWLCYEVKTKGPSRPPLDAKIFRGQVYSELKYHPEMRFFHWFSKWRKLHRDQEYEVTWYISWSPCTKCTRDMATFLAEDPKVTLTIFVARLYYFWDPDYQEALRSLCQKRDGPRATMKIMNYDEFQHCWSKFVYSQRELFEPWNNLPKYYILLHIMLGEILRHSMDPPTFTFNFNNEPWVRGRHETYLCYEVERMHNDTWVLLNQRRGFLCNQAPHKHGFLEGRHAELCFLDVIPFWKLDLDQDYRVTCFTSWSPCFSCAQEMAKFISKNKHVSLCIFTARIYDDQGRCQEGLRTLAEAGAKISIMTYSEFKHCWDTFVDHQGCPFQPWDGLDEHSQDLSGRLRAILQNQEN
Voltage-gated inwardly rectifying potassium channel KCNH2, sequence (Q12809 whole entry): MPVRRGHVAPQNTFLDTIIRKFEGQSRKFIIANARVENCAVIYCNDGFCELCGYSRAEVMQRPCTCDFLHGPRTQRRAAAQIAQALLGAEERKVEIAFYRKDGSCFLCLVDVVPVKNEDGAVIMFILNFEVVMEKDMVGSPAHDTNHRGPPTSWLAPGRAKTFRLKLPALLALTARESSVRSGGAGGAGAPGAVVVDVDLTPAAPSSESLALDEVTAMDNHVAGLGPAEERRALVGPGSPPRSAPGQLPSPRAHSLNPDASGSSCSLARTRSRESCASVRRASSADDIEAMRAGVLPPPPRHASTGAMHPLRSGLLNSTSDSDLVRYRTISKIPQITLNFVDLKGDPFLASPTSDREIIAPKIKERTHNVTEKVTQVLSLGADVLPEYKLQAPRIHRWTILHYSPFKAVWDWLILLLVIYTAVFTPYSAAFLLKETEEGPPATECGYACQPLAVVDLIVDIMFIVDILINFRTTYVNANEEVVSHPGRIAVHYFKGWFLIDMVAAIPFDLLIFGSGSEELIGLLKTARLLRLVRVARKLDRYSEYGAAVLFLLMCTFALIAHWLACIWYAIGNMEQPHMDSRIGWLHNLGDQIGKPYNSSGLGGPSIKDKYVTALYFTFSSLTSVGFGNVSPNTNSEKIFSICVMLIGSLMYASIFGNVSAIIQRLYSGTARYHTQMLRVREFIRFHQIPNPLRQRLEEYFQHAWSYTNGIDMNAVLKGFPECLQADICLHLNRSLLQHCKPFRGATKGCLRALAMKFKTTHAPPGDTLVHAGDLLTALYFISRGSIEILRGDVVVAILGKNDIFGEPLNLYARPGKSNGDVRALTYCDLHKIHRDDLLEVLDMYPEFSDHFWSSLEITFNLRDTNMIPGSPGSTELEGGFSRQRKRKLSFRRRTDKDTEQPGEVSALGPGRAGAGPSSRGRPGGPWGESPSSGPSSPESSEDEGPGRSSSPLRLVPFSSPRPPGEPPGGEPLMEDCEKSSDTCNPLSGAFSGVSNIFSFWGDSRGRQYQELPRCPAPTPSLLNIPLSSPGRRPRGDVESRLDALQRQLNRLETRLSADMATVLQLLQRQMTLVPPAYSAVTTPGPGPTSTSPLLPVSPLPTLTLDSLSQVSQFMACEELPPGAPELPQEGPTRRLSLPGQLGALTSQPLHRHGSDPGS
NADPH oxidase 1, sequence (Q9Y5S8 whole entry): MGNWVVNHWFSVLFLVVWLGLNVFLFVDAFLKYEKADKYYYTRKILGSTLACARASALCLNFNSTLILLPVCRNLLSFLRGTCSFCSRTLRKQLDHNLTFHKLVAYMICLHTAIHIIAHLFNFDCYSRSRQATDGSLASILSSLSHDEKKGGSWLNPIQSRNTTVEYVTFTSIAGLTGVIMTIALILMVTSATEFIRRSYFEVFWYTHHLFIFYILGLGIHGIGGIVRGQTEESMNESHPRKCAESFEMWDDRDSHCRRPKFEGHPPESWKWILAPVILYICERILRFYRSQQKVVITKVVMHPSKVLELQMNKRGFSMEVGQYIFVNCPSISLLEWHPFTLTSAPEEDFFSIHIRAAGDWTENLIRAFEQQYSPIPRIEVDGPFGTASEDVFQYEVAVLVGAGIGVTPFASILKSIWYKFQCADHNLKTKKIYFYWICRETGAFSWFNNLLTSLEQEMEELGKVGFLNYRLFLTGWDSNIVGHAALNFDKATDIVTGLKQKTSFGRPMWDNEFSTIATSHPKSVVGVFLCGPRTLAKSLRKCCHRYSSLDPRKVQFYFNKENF
Sphingosine 1-phosphate receptor 2, sequence (O95136 whole entry): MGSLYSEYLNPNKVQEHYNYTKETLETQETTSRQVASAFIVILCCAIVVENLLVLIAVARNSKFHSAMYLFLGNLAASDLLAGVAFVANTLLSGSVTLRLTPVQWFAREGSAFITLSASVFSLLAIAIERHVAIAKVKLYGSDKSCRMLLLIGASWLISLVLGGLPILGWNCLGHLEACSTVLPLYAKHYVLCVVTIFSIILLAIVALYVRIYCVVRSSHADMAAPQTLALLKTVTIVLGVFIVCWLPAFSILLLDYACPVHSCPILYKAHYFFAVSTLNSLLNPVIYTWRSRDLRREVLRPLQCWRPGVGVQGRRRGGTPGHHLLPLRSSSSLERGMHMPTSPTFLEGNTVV
Luciferin 4-monooxygenase, sequence (P08659 whole entry): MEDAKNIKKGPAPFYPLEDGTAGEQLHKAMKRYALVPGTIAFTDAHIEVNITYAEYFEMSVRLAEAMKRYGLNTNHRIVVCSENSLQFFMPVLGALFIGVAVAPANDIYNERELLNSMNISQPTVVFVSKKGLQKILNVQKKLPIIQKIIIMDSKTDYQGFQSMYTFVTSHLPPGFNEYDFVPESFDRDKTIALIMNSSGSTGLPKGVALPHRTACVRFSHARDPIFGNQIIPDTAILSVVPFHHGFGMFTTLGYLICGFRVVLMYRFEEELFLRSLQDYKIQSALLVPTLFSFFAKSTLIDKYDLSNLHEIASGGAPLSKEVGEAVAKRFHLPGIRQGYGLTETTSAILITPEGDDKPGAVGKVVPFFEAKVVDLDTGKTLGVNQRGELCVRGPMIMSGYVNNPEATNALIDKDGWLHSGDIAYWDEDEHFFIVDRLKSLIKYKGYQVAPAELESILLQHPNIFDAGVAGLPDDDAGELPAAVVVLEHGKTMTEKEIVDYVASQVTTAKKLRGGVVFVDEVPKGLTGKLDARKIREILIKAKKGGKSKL
Ephrin type-A receptor 4, sequence (Q03137 whole entry): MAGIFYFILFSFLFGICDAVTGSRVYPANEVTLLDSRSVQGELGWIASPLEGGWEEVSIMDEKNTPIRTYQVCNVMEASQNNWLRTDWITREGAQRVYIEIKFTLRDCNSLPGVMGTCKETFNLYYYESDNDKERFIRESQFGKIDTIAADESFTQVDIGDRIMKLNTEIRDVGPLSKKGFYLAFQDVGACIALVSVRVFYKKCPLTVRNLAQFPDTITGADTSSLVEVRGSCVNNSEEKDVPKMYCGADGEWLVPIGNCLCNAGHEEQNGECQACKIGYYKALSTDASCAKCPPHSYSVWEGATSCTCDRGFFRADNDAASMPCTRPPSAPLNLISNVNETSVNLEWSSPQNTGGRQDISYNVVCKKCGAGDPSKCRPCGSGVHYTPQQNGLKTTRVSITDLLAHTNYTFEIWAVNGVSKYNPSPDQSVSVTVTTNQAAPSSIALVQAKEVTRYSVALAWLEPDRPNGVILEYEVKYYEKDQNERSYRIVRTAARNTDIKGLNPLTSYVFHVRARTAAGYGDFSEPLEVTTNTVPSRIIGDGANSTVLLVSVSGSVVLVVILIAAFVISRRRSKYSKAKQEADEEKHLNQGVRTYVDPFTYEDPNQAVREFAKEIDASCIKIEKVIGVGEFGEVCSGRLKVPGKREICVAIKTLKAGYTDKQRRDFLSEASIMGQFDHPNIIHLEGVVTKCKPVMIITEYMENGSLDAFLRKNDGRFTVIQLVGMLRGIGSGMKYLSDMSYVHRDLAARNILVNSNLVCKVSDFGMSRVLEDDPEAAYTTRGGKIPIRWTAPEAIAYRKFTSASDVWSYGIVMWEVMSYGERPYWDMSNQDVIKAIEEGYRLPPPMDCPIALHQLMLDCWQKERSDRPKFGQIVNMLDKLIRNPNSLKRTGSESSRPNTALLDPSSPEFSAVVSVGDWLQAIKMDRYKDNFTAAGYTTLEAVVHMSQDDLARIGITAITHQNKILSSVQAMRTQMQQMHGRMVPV
DNA dC->dU-editing enzyme APOBEC-3A, sequence (P31941 whole entry): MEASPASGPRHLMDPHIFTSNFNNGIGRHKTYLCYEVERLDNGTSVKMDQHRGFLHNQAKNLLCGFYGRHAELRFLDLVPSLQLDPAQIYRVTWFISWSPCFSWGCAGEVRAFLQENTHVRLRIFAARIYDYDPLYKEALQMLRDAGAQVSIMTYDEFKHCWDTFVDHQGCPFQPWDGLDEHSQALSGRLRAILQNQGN

What is called EC50 is the midpoint of the concentration-response curve. Take `O=C(NC(=S)Nc1ncc(Br)cc1Br)c1ccccc1`: the EC50 in assay [1] was 1.46 µM (active).
Consider `CCS(=O)(=O)Nc1ccc(-c2nnc(SCC(=O)OC)o2)cc1`, for which the EC50 is > 112 µM (not active) in assay [2], < 30 µM (active) in [3] and 6.33 µM (active) in assay [4].
Usually IC50 stands for the concentration that gives 50% inhibition. In the case of `COc1ccc(-c2nc(-c3ccccc3)c(-c3ccccc3)[nH]2)cc1`, the IC50 in assay [5] is listed as > 17 µM (not active).
Broadly, the AC50 is the midpoint of the concentration-response curve, whichever way the signal moves. As for `O=[N+]([O-])/C=C/c1cn(Cc2ccccc2)c2ccccc12`, the AC50 in [6] was 15.8 µM (inconclusive); in assay [9] it was 6.43 µM (active). For the same compound, the IC50 in assay [7] is 2.3 µM (active). Also, the EC50 was 15.8 µM (active) in [8] and 13.2 µM (active) in assay [11]. For the same compound, in assay [10], the CC50 is > 40 µM (active).
In the case of `CCCCCCNC(=O)c1cc(-c2ccco2)nc2ccccc12`, the IC50 in [12] was 16 µM (active); in assay [13], 2.6 µM (active); in [14] it was 5.1 µM (active); in assay [15], 13.6 µM (active).
As for `CCOP(=O)(c1ccccc1)c1nc(-c2ccccc2C)oc1N1CCCCC1` (stereo not given), the EC50 in [16] and in assay [17] was > 20 µM (not active) each time.
As to `CCC1(CC)NC(=O)N(CC(=O)OCC(=O)c2cc(C)n(Cc3ccccc3)c2C)C1=O`, the EC50 in assay [18] is reported as > 30 µM (not active).
For the compound `O=c1oc2ccccc2n1CCn1c2ccccc2c2nc3ccccc3nc21`, the IC50 in assay [19] is 17.9 µM (active); in assay [20], 2.08 µM (active).
